Results reported in article PMC4180036 (Clinical pharmacology and therapeutics, 2014).
“And” between values parts separate entries of the source, which are not always exact repeats. Equal values may be shown once. Read-outs that look alike come from different tables or passages of the source.

Columns and labels:
[1] = other studies; cited from earlier work
[2] = human, in vivo
[3] = clinical; settings: human, in vivo
[4] = system: African Americans with NSCLC; experiment: Treatment-related toxicities; type: in vivo, human; settings: for Dermatologic, other than rash: Any, grade 1–3: erythema, hyperpigmentation, pruritus, xerodermia; for Nausea, grade 1–3: only one grade three nausea was recorded
[5] = system: NSCLC; experiment: Efficacy: disease control rate at 3 months; type: in vivo, human
[6] = system: NSCLC patients; settings: 150 mg erlotinib, cited from earlier work
[7] = Population pharmacokinetic modeling and covariate analysis; type: in vivo, human; settings: for IIV V1, inter-individual variability on volume of distribution / IIVCL, inter-individual variability on clearance / IOV CL, inter-occasion variability on clearance: expressed as variance; for θKa, first-order absorption rate constant: fixed value; for clearance / Vd: human, plasma, oral; for Vd: θV1, volume of distribution
[8] = Base model (n=26), Bootstrap median (95% CI)
[9] = Base model (n=26), Estimate (CV %)
[10] = Covariate model (LBM, n=26), Bootstrap median (95% CI)
[11] = Covariate model (LBM, n=26), Estimate (CV %)

C#Cc1cccc(Nc2ncnc3cc(OCCOC)c(OCCOC)cc23)c1 [erlotinib]
range of population estimates for CL/F [1]: 3.29 to 5.82 L/h | AUC0–24 [2]: 17400 ± 8900 ng·h/mL | Tmax [2]: 2.5 (0–10) hrs | AUC(0-t) ([3]; AUC0–24): 12200 ± 6200 ng·h/mL | Tmax ([3]; Tmax): 5 h | AST elevation ([4]; All, n=55): 4 (7) no. of pts (%) | Anorexia, grade 1–2 ([4]; All, n=55): 14 (25) no. of pts (%) | Anorexia, grade 3 ([4]; All, n=55): 3 (5) no. of pts (%) | Any grade 3+ toxicity ([4]; All, n=55): 11 (20) no. of pts (%) | Any grade 4/5 toxicity ([4]; All, n=55): 1 (2) no. of pts (%) | Dehydration, grade 1–2 ([4]; All, n=55): 1 (2) no. of pts (%) | Dehydration, grade 3 ([4]; All, n=55): 2 (4) no. of pts (%) | Diarrhea: Any grade ([4]; All, n=55): 16 (29) no. of pts (%) | Diarrhea: Grade 1 ([4]; All, n=55): 14 (25) no. of pts (%) | Diarrhea: Grade 2 ([4]; All, n=55): 2 (4) no. of pts (%) | Diarrhea: Grade 3+ ([4]; All, n=55): 0 no. of pts (%) | Hyperbilirubinemia ([4]; All, n=55): 1 (2) no. of pts (%) | Pneumonitis, grade 3 ([4]; All, n=55): 1 (2) no. of pts (%) | Rash, maximum grade: Any grade ([4]; All, n=55): 38 (69) no. of pts (%) | Rash, maximum grade: Grade 1 ([4]; All, n=55): 22 (40) no. of pts (%) | Rash, maximum grade: Grade 2 ([4]; All, n=55): 12 (22) no. of pts (%) | Rash, maximum grade: Grade 3 ([4]; All, n=55): 4 (7) no. of pts (%) | Xerostomia ([4]; All, n=55): 2 (4) no. of pts (%) | Dermatologic, other than rash: Any, grade 1–3 ([4]; All, n=55): 16 (29) no. of pts (%) | Nausea, grade 1–3 ([4]; All, n=55): 8 (15) no. of pts (%) | AST elevation ([4]; Arm A (fixed dose), n=28): 4 (14) no. of pts (%) | Anorexia, grade 1–2 ([4]; Arm A (fixed dose), n=28): 5 (18) no. of pts (%) | Anorexia, grade 3 ([4]; Arm A (fixed dose), n=28): 2 (7) no. of pts (%) | Any grade 3+ toxicity ([4]; Arm A (fixed dose), n=28): 5 (18) no. of pts (%) | Any grade 4/5 toxicity ([4]; Arm A (fixed dose), n=28): 1 (4) no. of pts (%) | Dehydration, grade 1–2 ([4]; Arm A (fixed dose), n=28): 0 no. of pts (%) | Dehydration, grade 3 ([4]; Arm A (fixed dose), n=28): 1 (4) no. of pts (%) | Diarrhea: Any grade ([4]; Arm A (fixed dose), n=28): 9 (32) no. of pts (%) | Diarrhea: Grade 1 ([4]; Arm A (fixed dose), n=28): 7 (25) no. of pts (%) | Diarrhea: Grade 2 ([4]; Arm A (fixed dose), n=28): 2 (7) no. of pts (%) | Diarrhea: Grade 3+ ([4]; Arm A (fixed dose), n=28): 0 no. of pts (%) | Hyperbilirubinemia ([4]; Arm A (fixed dose), n=28): 0 no. of pts (%) | Pneumonitis, grade 3 ([4]; Arm A (fixed dose), n=28): 1 (4) no. of pts (%) | Rash, maximum grade: Any grade ([4]; Arm A (fixed dose), n=28): 19 (68) no. of pts (%) | Rash, maximum grade: Grade 1 ([4]; Arm A (fixed dose), n=28): 12 (43) no. of pts (%) | Rash, maximum grade: Grade 2 ([4]; Arm A (fixed dose), n=28): 7 (25) no. of pts (%) | Rash, maximum grade: Grade 3 ([4]; Arm A (fixed dose), n=28): 0 no. of pts (%) | Xerostomia ([4]; Arm A (fixed dose), n=28): 0 no. of pts (%) | Dermatologic, other than rash: Any, grade 1–3 ([4]; Arm A (fixed dose), n=28): 7 (25) no. of pts (%) | Nausea, grade 1–3 ([4]; Arm A (fixed dose), n=28): 2 (7) no. of pts (%) | AST elevation ([4]; Arm B (dose adjusted), n=27): 0 no. of pts (%) | Anorexia, grade 1–2 ([4]; Arm B (dose adjusted), n=27): 9 (33) no. of pts (%) | Anorexia, grade 3 ([4]; Arm B (dose adjusted), n=27): 1 (4) no. of pts (%) | Any grade 3+ toxicity ([4]; Arm B (dose adjusted), n=27): 6 (22) no. of pts (%) | Any grade 4/5 toxicity ([4]; Arm B (dose adjusted), n=27): 0 no. of pts (%) | Dehydration, grade 1–2 ([4]; Arm B (dose adjusted), n=27): 1 (4) no. of pts (%) | Dehydration, grade 3 ([4]; Arm B (dose adjusted), n=27): 1 (4) no. of pts (%) | Diarrhea: Any grade ([4]; Arm B (dose adjusted), n=27): 7 (26) no. of pts (%) | Diarrhea: Grade 1 ([4]; Arm B (dose adjusted), n=27): 7 (26) no. of pts (%) | Diarrhea: Grade 2 ([4]; Arm B (dose adjusted), n=27): 0 no. of pts (%) | Diarrhea: Grade 3+ ([4]; Arm B (dose adjusted), n=27): 0 no. of pts (%) | Hyperbilirubinemia ([4]; Arm B (dose adjusted), n=27): 1 (4) no. of pts (%) | Pneumonitis, grade 3 ([4]; Arm B (dose adjusted), n=27): 0 no. of pts (%) | Rash, maximum grade: Any grade ([4]; Arm B (dose adjusted), n=27): 19 (70) no. of pts (%) | Rash, maximum grade: Grade 1 ([4]; Arm B (dose adjusted), n=27): 10 (37) no. of pts (%) | Rash, maximum grade: Grade 2 ([4]; Arm B (dose adjusted), n=27): 5 (19) no. of pts (%) | Rash, maximum grade: Grade 3 ([4]; Arm B (dose adjusted), n=27): 4 (15) no. of pts (%) | Xerostomia ([4]; Arm B (dose adjusted), n=27): 2 (7) no. of pts (%) | Dermatologic, other than rash: Any, grade 1–3 ([4]; Arm B (dose adjusted), n=27): 9 (33) no. of pts (%) | Nausea, grade 1–3 ([4]; Arm B (dose adjusted), n=27): 6 (22) no. of pts (%) | patients who experienced rash during the first cycle ([4]; Arm B, of the 27 enrolled patients): 18 patients | diarrhea, % of patients ([4]; all 55 treated patients): 29% | dose reductions for toxicity ([4]; all 55 treated patients): no dose reductions for toxicity | nausea, % of patients ([4]; all 55 treated patients): 15% | patients who experienced any grade 3 toxicity ([4]; all 55 treated patients (11 patients)): 20% | PD ([5]; All, n=52 evaluable patients): 40 (78) Number of patients (%) | PR ([5]; All, n=52 evaluable patients): 1 (2) Number of patients (%) | 1 year progression free rate ([5]; All, n=55 treated patients): 7% | 1 year survival rate ([5]; All, n=55 treated patients): 28% | Survival, Median ([5]; All, n=55 treated patients): 5.3 months | Survival, Range ([5]; All, n=55 treated patients): 0.9–42.8 months | TTP, Median (95% CI) ([5]; All, n=55 treated patients): 2.6 (1.9– 2.8) months | TTP, Range ([5]; All, n=55 treated patients): 0.3–20.2 months | DCR at 3 months ([5]; Arm A, n=26 evaluable patients): 6 (23) Number of patients (%) | PD ([5]; Arm A, n=26 evaluable patients): 20 (77) Number of patients (%) | PR ([5]; Arm A, n=26 evaluable patients): 1 (4) Number of patients (%) | 1 year progression free rate ([5]; Arm A, n=28): 10% | 1 year survival rate ([5]; Arm A, n=28): 30% | Survival, Median ([5]; Arm A, n=28): 5.3 months | Survival, Range ([5]; Arm A, n=28): 0.9–37.4 months | TTP, Median (95% CI) ([5]; Arm A, n=28): 2.8 (2.5–3.1) months | TTP, Range ([5]; Arm A, n=28): 0.6–14.4 months | DCR at 3 months ([5]; Arm B, n=26 evaluable patients): 6 (23) Number of patients (%) | PD ([5]; Arm B, n=26 evaluable patients): 20 (77) Number of patients (%) | PR ([5]; Arm B, n=26 evaluable patients): 0 Number of patients (%) | 1 year progression free rate ([5]; Arm B, n=27): 4% | 1 year survival rate ([5]; Arm B, n=27): 26% | Survival, Median ([5]; Arm B, n=27): 5.2 months | Survival, Range ([5]; Arm B, n=27): 1.3–42.8 months | TTP, Median (95% CI) ([5]; Arm B, n=27): 2.4 (1.5–2.7) months | TTP, Range ([5]; Arm B, n=27): 0.3–20.2 months | dose reductions due to adverse events ([6]; 81 Caucasian NSCLC patients): 14% | dose reductions due to adverse events ([6]; 1242 Asian NSCLC patients): 23% | θFM (fraction of erlotinib converted to OSI-420, FMET=1/1+exp(FM)) [7, 8]: 1.22 (0.47, 3.33) | IIV V1, inter-individual variability on volume of distribution [7, 8]: 0.90 (0.40, 1.33) | IIVCL, inter-individual variability on clearance [7, 8]: 0.24 (0.005, 0.44) | IOV CL, inter-occasion variability on clearance [7, 8]: 0.58 (0.29, 0.89) | θFM (fraction of erlotinib converted to OSI-420, FMET=1/1+exp(FM)) [7, 9]: 1.41 (12.8) | IIV V1, inter-individual variability on volume of distribution [7, 9]: 0.92 (50.5) | IIVCL, inter-individual variability on clearance [7, 9]: 0.06 (80.8) | IOV CL, inter-occasion variability on clearance [7, 9]: 0.38 (55.5) | θKa, first-order absorption rate constant ([7]; Base model (n=26)): 1.04 h⁻¹ | θFM (fraction of erlotinib converted to OSI-420, FMET=1/1+exp(FM)) [7, 10]: 1.03 (0.23, 3.49) | θLBM, lean body mass covariate term [7, 10]: 1.75 (0.69, 3.08) | IIV V1, inter-individual variability on volume of distribution [7, 10]: 0.92 (0.43, 1.37) | IIVCL, inter-individual variability on clearance [7, 10]: 0.13 and 0.13 (0.001, 0.35) | IOV CL, inter-occasion variability on clearance [7, 10]: 0.51 (0.15, 0.85) | θFM (fraction of erlotinib converted to OSI-420, FMET=1/1+exp(FM)) [7, 11]: 0.88 (26.4) | θLBM, lean body mass covariate term [7, 11]: 1.71 (27.8) | IIV V1, inter-individual variability on volume of distribution [7, 11]: 0.95 (50.7) | IIVCL, inter-individual variability on clearance [7, 11]: 0.02 (127.1) | IOV CL, inter-occasion variability on clearance [7, 11]: 0.30 (67.9) | θKa, first-order absorption rate constant ([7]; Covariate model (LBM, n=26)): 1.04 h⁻¹ | clearance ([7]; both, θCL, erlotinib clearance, Base model (n=26), Bootstrap median (95% CI)): 104 mL/min | clearance ([7]; both, θCL, erlotinib clearance, Base model (n=26), Estimate (CV %)): 104 mL/min | clearance ([7]; both, θCL, erlotinib clearance, Covariate model (LBM, n=26), Bootstrap median (95% CI)): 106 mL/min | clearance ([7]; both, θCL, erlotinib clearance, Covariate model (LBM, n=26), Estimate (CV %)): 107 mL/min | Vd ([7]; both, Base model (n=26), Bootstrap median (95% CI)): 275 L | Vd ([7]; both, Base model (n=26), Estimate (CV %)): 284 L | Vd ([7]; both, Covariate model (LBM, n=26), Estimate (CV %)): 283 L | clearance ([7]; estimated erlotinib clearance from nonlinear mixed-effects modeling, this study): 104 mL/min
